This is an account of results in PubChem BioAssay AID1159564 (GlaxoSmithKline (GSK), 2015).

The structures appear in SMILES notation. Calls of active or inactive are those of the source. No rule for the calls is given here. A value given as a limit tells only on which side of the number the result lay.

The test has as its system L. donovani-infected THP-1 macrophages, intracellular amastigote imaging. Briefly: intracellular L. donovani amastigote inhibition, imaging, THP-1 host macrophages, host toxicity (AID 1159564).
Where [1] appears, read: measured here: THP-1 host cell toxicity.
Where [2] appears, read: measured here: amastigotes per macrophage.

On to `Cc1ccc(S(=O)(=O)Cn2nnnc2C(c2cccnc2)N2CCN(c3ccccc3)CC2)cc1` (stereo not given), for which the IC50 is > 50 µM (inactive). Further, under setting [1], the IC50 is greater than 50 µM. The IC50 under setting [2] is greater than 50 µM.

Regarding `Cc1cc(Oc2cc(Cl)c(Cl)cc2Cl)n2ncnc2n1`, the IC50 is 16 µM. The same compound registered a 50% inhibitory concentration (IC50) under setting [1] of 10 µM. In addition, under setting [2], the half-inhibitory concentration (IC50) stood at 13 µM.

Consider `COc1ccc(C(=O)Nc2ccc(NC(=O)CO)cc2)cc1`, for which the IC50 is > 50 µM (inactive). The compound further yielded an IC50 under setting [1] of 20 µM. Under setting [2], this compound displayed a half-inhibitory concentration (IC50) greater than 50 µM.

For `COc1ccccc1-n1c(SCC(=O)Nc2ccc3c(c2)OCO3)nc2c(c1=O)SCC2`, the half-maximal inhibitory concentration (IC50) is 7.9 µM. Under setting [1], this compound yielded a half-inhibitory concentration (IC50) greater than 50 µM. Under setting [2], this compound gave a half-maximal inhibitory concentration (IC50) of 5 µM.

For `O=C(Cn1cnc2cc([N+](=O)[O-])ccc2c1=O)NCCc1ccc(Cl)cc1Cl`, the IC50 is > 50 µM (inactive). In addition, under setting [1], the IC50 is greater than 50 µM. Further, under setting [2], the IC50 is greater than 50 µM.

`O=C(Nc1ccc(C(F)(F)F)cc1)Nc1cccc([N+](=O)[O-])c1`: the half-maximal inhibitory concentration (IC50) is 2.5 µM. The same compound yielded an IC50 under setting [1] of 6.3 µM. Under setting [2], this compound showed a half-maximal inhibitory concentration (IC50) of 2 µM.

Consider `NC(=O)c1cc(F)ccc1Nc1nc(NC2CCC(O)CC2)ncc1Br` (stereo not given), for which the half-inhibitory concentration (IC50) was 0.79 µM. Moreover, under setting [1], the half-inhibitory concentration (IC50) came to 0.4 µM. This compound showed an IC50 under setting [2] of 0.63 µM.

In the case of `O=c1ccc2ccc(F)c3c2n1C[C@H]3CN1CCC(NCc2cc3ccccc3o2)CC1`, the concentration for half-maximal inhibition (IC50) was 20 µM. In addition, the half-maximal inhibitory concentration (IC50) under setting [1] is 32 µM. This compound also came in with an IC50 under setting [2] of 13 µM.

Turning to `CN(C)S(=O)(=O)c1cccc(C(=O)Nc2nc(-c3ccccn3)cs2)c1`, the half-maximal inhibitory concentration (IC50) was 6.3 µM. Under setting [1], this compound came in with an IC50 of 7.9 µM. Under setting [2], the IC50 turned out to be 2.5 µM.

Turning to `Nc1ncnc2c1ncn2[C@@H]1O[C@H](CO)C[C@H]1O`, the IC50 was > 50 µM (inactive). Besides, under setting [1], the IC50 is greater than 50 µM. The same compound yielded an IC50 under setting [2] greater than 50 µM.

With `Cn1ccnc1CN1CCc2[nH]cnc2C1c1ccccc1OCc1ccccc1` (stereo not given), the IC50 was > 50 µM (inactive). Besides, under setting [1], the concentration for half-maximal inhibition (IC50) was greater than 50 µM. For the same compound, the IC50 under setting [2] was greater than 50 µM.

`O=C(NCC(c1cccnc1)N1CCc2ccccc2C1)C(=O)Nc1cccc(Cl)c1` (stereo not given): the IC50 was > 50 µM (inactive). For the same compound, the IC50 under setting [1] is greater than 50 µM. In addition, the concentration for half-maximal inhibition (IC50) under setting [2] is greater than 50 µM.

Consider `Cc1ccc(Nc2nc(C3CCCN3Cc3ccn[nH]3)cs2)nc1` (stereo not given), for which the concentration for half-maximal inhibition (IC50) is 1.6 µM. Further, the half-inhibitory concentration (IC50) under setting [1] came out at 25 µM. The concentration for half-maximal inhibition (IC50) under setting [2] is 1.3 µM.

On to `Cn1cncc1CN1CCC2(CC1)COC(Cc1ccccc1)C2` (stereo not given), for which the IC50 was > 50 µM (inactive). The IC50 under setting [1] is greater than 50 µM.

For the compound `CNc1cncc(C2CCCN2C(=O)Cc2ccc3ccccc3c2)n1` (stereo not given), the IC50 was > 50 µM (inactive). This compound also yielded an IC50 under setting [1] greater than 50 µM. Further, under setting [2], the half-inhibitory concentration (IC50) was greater than 50 µM.

Turning to `N#CN1CC[C@@H](NC(=O)Nc2ccccc2Oc2ccccc2)C1`, the half-maximal inhibitory concentration (IC50) is 5 µM. Also, under setting [1], the IC50 was determined as 25 µM. Under setting [2], this compound came in with an IC50 of 4 µM.

Consider `COc1ccc(Nc2nc(-c3ccccn3)cs2)c(OC)c1`, for which the IC50 was 2.5 µM. Also, under setting [1], the concentration for half-maximal inhibition (IC50) is greater than 50 µM. Also, the IC50 under setting [2] stood at 2 µM.

Consider `O=C(NCCc1cccnc1)c1ccc(-c2ccccc2F)o1`, for which the IC50 is > 50 µM (inactive). The half-maximal inhibitory concentration (IC50) under setting [1] was greater than 50 µM. This compound returned a 50% inhibitory concentration (IC50) under setting [2] greater than 50 µM.

`Oc1c(-c2n[nH]c(CCc3ccccc3)n2)ncc2cccnc12`: the IC50 is 4 µM. This compound had an IC50 under setting [1] of 20 µM. This compound also returned a 50% inhibitory concentration (IC50) under setting [2] of 3.2 µM.

In the case of `N#Cc1cccc(Cc2cc(Nc3cc(C4CC4)[nH]n3)nc(N3CC[C@H]3C(N)=O)n2)c1`, the half-inhibitory concentration (IC50) was 0.2 µM. Under setting [1], this compound showed an IC50 of 0.032 µM. This compound showed an IC50 under setting [2] of 0.079 µM.

Turning to `CCc1ccc2nc(NC(=O)c3cc(N4CCOCC4)ccn3)sc2c1`, the 50% inhibitory concentration (IC50) was 1.3 µM. The compound further had an IC50 under setting [1] of 10 µM. In addition, under setting [2], the IC50 was 0.79 µM.

On to `COCc1cc(Nc2cccc(Cl)c2)nc(-c2ccccn2)n1`, for which the IC50 was 1.6 µM. The compound further gave an IC50 under setting [1] greater than 50 µM. Also, under setting [2], the half-maximal inhibitory concentration (IC50) is 0.63 µM.

As for `CN(Cc1ccccc1)Cc1nnnn1C1CCN(Cc2ccc(-n3ccnc3)cc2)CC1`, the IC50 is > 50 µM (inactive). Under setting [1], this compound showed a 50% inhibitory concentration (IC50) of 32 µM. In addition, the IC50 under setting [2] is greater than 50 µM.

Take `O=C(Nc1cccc(F)c1)N1CCC(Oc2cccc(-c3cccnc3)c2)CC1`: the IC50 was > 50 µM (inactive). This compound also had a half-maximal inhibitory concentration (IC50) under setting [1] of 20 µM. Under setting [2], this compound yielded a half-maximal inhibitory concentration (IC50) of 0.79 µM.

In the case of `CC(=O)Nc1ccc(-c2cnc(N)c(-c3nc4ccc(F)cc4[nH]3)c2)cc1`, the IC50 was 1 µM. For the same compound, under setting [1], the IC50 turned out to be 7.9 µM. In addition, under setting [2], the 50% inhibitory concentration (IC50) turned out to be 0.5 µM.

As for `CCN(Cc1cccs1)C(=O)CSc1nnc(-c2ccc3c(c2)OCO3)o1`, the IC50 was 2 µM. Also, the IC50 under setting [1] is greater than 50 µM. The concentration for half-maximal inhibition (IC50) under setting [2] was found to be 2 µM.

As for `O=S1N=C(NCCCN(Cc2ccc(F)cc2)c2ccccn2)C(NCc2ccncc2)=N1` (stereo not given), the IC50 is > 50 µM (inactive). Besides, under setting [1], the IC50 worked out at 25 µM. The half-maximal inhibitory concentration (IC50) under setting [2] was found to be 25 µM.

What is called IC50 is the midpoint of a concentration-inhibition curve.
